Measurements as given in the NIST ThermoML archive (doi:10.1016/j.jct.2008.01.018).
± gives the expanded uncertainty stated by the source.

Experiment: mn = molality of the nth substance listed, in mol/kg
Conditions: 101 kPa, Liquid; for speed of sound: Sing-around technique in a fixed-path interferometer

O=P([O-])(O)O.[Na+] [sodium dihydrogen phosphate] + O
Conditions	mass density, 283.15 K [kg/m3]	mass density, 288.15 K [kg/m3]	mass density, 293.15 K [kg/m3]	speed of sound, 283.15 K [m/s]	speed of sound, 288.15 K [m/s]	speed of sound, 293.15 K [m/s]
m1 = 0.0343	1002.89 ± 0.16	1002.25 ± 0.16	1001.32 ± 0.16	1451.8 ± 0.72	1470 ± 0.73	1486 ± 0.74
m1 = 0.0484	1004.16 ± 0.16	1003.5 ± 0.15	1002.56 ± 0.15	1453.5 ± 0.73	1471.6 ± 0.73	1487.6 ± 0.74
m1 = 0.1399	1012.4 ± 0.17	1011.65 ± 0.17	1010.62 ± 0.17	1463.6 ± 0.73	1481.2 ± 0.74	1496.9 ± 0.74
m1 = 0.167	1014.82 ± 0.17	1014.03 ± 0.17	1012.98 ± 0.17	1466.5 ± 0.73	1484.1 ± 0.74	1499.7 ± 0.74
m1 = 0.1967	1017.47 ± 0.18	1016.66 ± 0.18	1015.58 ± 0.17	1469.7 ± 0.73	1487.2 ± 0.74	1502.7 ± 0.75
m1 = 0.2231	1019.84 ± 0.18	1019 ± 0.18	1017.9 ± 0.18	1472.6 ± 0.73	1490 ± 0.74	1505.3 ± 0.75
m1 = 0.2506	1022.23 ± 0.18	1021.37 ± 0.18	1020.25 ± 0.18	1475.5 ± 0.74	1492.8 ± 0.74	1508 ± 0.75
m1 = 0.3229	1028.59 ± 0.19	1027.65 ± 0.19	1026.47 ± 0.19	1483.2 ± 0.74	1500.2 ± 0.75	1515.1 ± 0.75
m1 = 0.3586	1031.67 ± 0.2	1030.7 ± 0.19	1029.5 ± 0.19	1486.9 ± 0.74	1503.7 ± 0.75	1518.5 ± 0.75
m1 = 0.4346	1038.07 ± 0.2	1037.04 ± 0.2	1035.78 ± 0.2	1494.7 ± 0.74	1511.1 ± 0.75	1525.6 ± 0.76
m1 = 0.5108	1044.45 ± 0.21	1043.36 ± 0.21	1042.04 ± 0.21	1502.2 ± 0.75	1518.4 ± 0.75	1532.6 ± 0.76
m1 = 0.5812	1050.36 ± 0.22	1049.21 ± 0.22	–	1509.2 ± 0.75	1525.2 ± 0.76	1539.1 ± 0.76
m1 = 0.6658	1057.33 ± 0.23	1056.12 ± 0.23	–	1517.5 ± 0.75	1533.1 ± 0.76	1546.8 ± 0.77
m1 = 0.7462	1063.82 ± 0.24	1062.54 ± 0.24	–	1525.3 ± 0.76	1540.5 ± 0.76	1553.9 ± 0.77
m1 = 0.9163	1077.42 ± 0.26	1076.03 ± 0.26	–	1541.5 ± 0.76	1556.1 ± 0.77	1568.9 ± 0.78
m1 = 1.093	1091.46 ± 0.28	1089.96 ± 0.28	–	1558.4 ± 0.77	1572.3 ± 0.78	1584.3 ± 0.78
m1 = 1.262	1104.21 ± 0.3	1102.62 ± 0.3	–	1573.7 ± 0.78	1587 ± 0.78	1598.5 ± 0.79
m1 = 1.451	1117.95 ± 0.32	1116.26 ± 0.32	–	1590.5 ± 0.79	1602.9 ± 0.79	1613.8 ± 0.8
m1 = 1.758	1139.71 ± 0.36	1137.89 ± 0.35	–	1617 ± 0.8	1628.3 ± 0.81	1638.1 ± 0.81
m1 = 2.041	1159.21 ± 0.39	1157.28 ± 0.38	–	1641.2 ± 0.82	1651.4 ± 0.82	1660.2 ± 0.82
m1 = 2.374	1181.48 ± 0.42	1179.42 ± 0.42	–	1669.2 ± 0.83	1678.2 ± 0.83	1685.9 ± 0.84
m1 = 2.747	1205.29 ± 0.46	1203.12 ± 0.46	–	1699.5 ± 0.85	1707.2 ± 0.85	1713.7 ± 0.85
m1 = 3.115	1226.77 ± 0.49	1224.51 ± 0.49	–	1727.2 ± 0.87	1733.6 ± 0.87	1739 ± 0.87
m1 = 3.512	1250.32 ± 0.53	1247.97 ± 0.53	–	1758.2 ± 0.89	1763.3 ± 0.89	1767.4 ± 0.89
